Values belong to the compound of their own block, whether it stands above or below them.
Assay: solvent given as SMILES

absorption maximum (in ClCCl): 689 nm
SMILES: CCN(CC)c1ccc2c(-c3ccccc3C(=O)O)c3c([o+]c2c1)/C(=C/c1ccc(N(C)C)cc1)CCC3

absorption maximum (in ClCCl): 326 nm
SMILES: COc1cc(-c2ncc(-c3ccncc3)o2)cc(OC)c1OC

absorption maximum (in ClCCl): 349 nm
SMILES: c1ccc(N(c2ccccc2)c2ccc(-c3ccc(-c4nc(-c5ccccn5)n(-c5ccccc5)n4)cc3)cc2)cc1

absorption maximum (in ClCCl): 322 nm
SMILES: c1ccc2c(c1)ccc1c3ccccc3ccc21

absorption maximum (in ClCCl): 608 nm
SMILES: CCOC(=O)COc1ccc(/C=C/C2=C3C(C)=CC(C)=[N+]3[B-](F)(F)n3c2c2ccccc2c3-c2[nH]c(C)cc2C)cc1

absorption maximum (in CO): 435 nm
SMILES: Cc1cc(C)c(B(c2cc(-c3ccc(N(C)C)cc3)sc2-c2sc(-c3ccc(N(C)C)cc3)cc2P(=O)(c2ccccc2)c2ccccc2)c2c(C)cc(C)cc2C)c(C)c1

absorption maximum (in CC#N): 400 nm
absorption maximum (in ClCCl): 404 nm
SMILES: COC(=O)c1cc(=O)n(Cc2ccccc2)c2cc(-c3ccc(OC)cc3)sc12

absorption maximum (in C1COCCO1): 458 nm
absorption maximum (in CC#N): 462 nm
absorption maximum (in ClCCl): 468 nm
SMILES: CCCCN(CCCC)c1ccc(/C=C/c2ccc3nc(-c4ccccc4)c(/C=C/c4ccc(N(C)C)cc4)nc3c2)cc1

absorption maximum (in ClCCl): 329 nm
SMILES: O=Cc1ccc2c(c1)c1ccccc1n2-c1ccc(-c2ccc(-n3c4ccccc4c4cc(C=O)ccc43)cc2)cc1

absorption maximum (in CC#N): 383 nm
SMILES: Cc1ccc(-c2sc(/C(C#N)=C/c3ccc(C#N)cc3)nc2-c2ccc(Cl)cc2)cc1

absorption maximum (in CCO): 564 nm
absorption maximum (in ClCCl): 565 nm
SMILES: Cc1ccccc1-c1c2ccc(=[N+]3CCCCC3)cc-2oc2cc(N3CCCCC3)ccc12

absorption maximum (in ClCCl): 498 nm
SMILES: Cc1ccc(C2=C(c3ccc(C)cc3)c3cccc4c3c(cc3nc5ccccc5nc34)O2)cc1

absorption maximum (in ClCCl): 378 nm
SMILES: CN(/N=C1\N=C(N)C2(CCCC2)c2ccccc21)c1ccccc1

absorption maximum (in ClC(Cl)Cl): 412 nm
SMILES: CCN(CC)c1ccc2cc(-c3ccc(-c4c5ccccc5c(-c5ccc(-c6cc7ccc(N(CC)CC)cc7oc6=O)cc5)c5ccccc45)cc3)c(=O)oc2c1

absorption maximum (in CCCCCC): 675 nm
absorption maximum (in ClCCl): 683 nm
SMILES: CC(C)[Si](C#Cc1c2cc3ccccc3cc2c(C#C[Si](C(C)C)(C(C)C)C(C)C)c2nc3cc4c(cc3nc12)C1c2ccccc2C4c2ccccc21)(C(C)C)C(C)C

absorption maximum (in C1CCCCC1): 327 nm
absorption maximum (in CC#N): 327 nm
absorption maximum (in CCO): 329 nm
absorption maximum (in ClCCl): 329 nm
SMILES: O=P1(c2ccccc2)c2ccccc2-c2sc3ccccc3c21 (centres undefined)

absorption maximum (in ClC(Cl)Cl): 363 nm
SMILES: CCCCCCN1C(=O)c2cccc3c(-c4ccc([N+](=O)[O-])s4)ccc(c23)C1=O

absorption maximum (in CO): 451 nm
SMILES: O=C1C=C(Nc2ccc([N+](=O)[O-])cc2)C(=O)c2ccccc21

absorption maximum (in C1CCOC1): 426 nm
SMILES: CCCCCOc1cc2oc(=O)c3c4ccc(C#N)cc4c4ccc5cccc6c(c1)c2c3c4c56

absorption maximum (in C1CCCCC1): 455 nm
absorption maximum (in CC#N): 481 nm
absorption maximum (in CCO): 488 nm
absorption maximum (in c1ccccc1): 469 nm
SMILES: Nc1ccc2c(c1)C(=O)c1ccccc1-2

absorption maximum (in CC#N): 538 nm
SMILES: CC1=C(c2ccccc2)C2=Cc3c(-c4ccccc4)c(C)c(C)n3[B-](F)(F)[N+]2=C1C

absorption maximum (in ClC(Cl)Cl): 363 nm
SMILES: Fc1ccc(C2=NC(c3ccccc3)C(N(c3ccccc3)c3ccccc3)S2)cc1 (centres undefined)

absorption maximum (in CCO): 360 nm
SMILES: Cc1nc2c(cc3c4c(cccc42)C(=O)OC3=O)o1

absorption maximum (in CC#N): 379 nm
SMILES: N#C/C(=C\c1ccc(C#N)cc1)c1nc(-c2ccccc2)c(-c2ccccc2)s1

absorption maximum (in ClC(Cl)Cl): 386 nm
SMILES: Cc1cc(=O)oc2cc3c(cc12)c1c2ccccc2c2ccccc2c1c1c2ccccc2c2ccccc2c31

absorption maximum (in ClCCl): 302 nm
SMILES: Cc1c(C)c2c3ccccc3[nH]c2c2ccccc12

The remaining lines, values behind:

SMILES: CC1(C)c2ccccc2N(c2ccc(-c3nnc(-c4ccccc4O)o3)cc2)c2ccccc21
absorption maximum (in C1CCOC1): 361 nm
absorption maximum (in C1COCCO1): 363 nm
absorption maximum (in CC#N): 358 nm
absorption maximum (in CC(C)=O): 361 nm
absorption maximum (in CCCCCC): 362 nm
absorption maximum (in CCO): 361 nm
absorption maximum (in CCOC(C)=O): 360 nm
absorption maximum (in CN(C)C=O): 360 nm
absorption maximum (in CS(C)=O): 364 nm
absorption maximum (in Cc1ccccc1): 362 nm
absorption maximum (in ClC(Cl)Cl): 365 nm
absorption maximum (in ClCCCl): 368 nm
absorption maximum (in ClCCl): 366 nm
absorption maximum (in Clc1ccccc1): 367 nm

SMILES: Cc1ccc2[nH]c(-c3ccc(-c4ccc(-c5ccc(-c6nc7cc(C)ccc7[nH]6)cc5)cc4)cc3)nc2c1
absorption maximum (in CN(C)C=O): 351 nm

SMILES: C=C(C)C(CN1C(=O)c2cccc3cccc(c23)C1=O)OO (centres undefined)
absorption maximum (in CCO): 332 nm

SMILES: CCCCN(CCCC)c1ccc2c(c1)C#CC#Cc1cc(C(F)(F)F)ccc1C#Cc1cc(c3cc1C#Cc1ccc(N(CCCC)CCCC)cc1C#CC#Cc1cc(C(F)(F)F)ccc1C#C3)C#C2
absorption maximum (in ClCCl): 477 nm

SMILES: COc1ccc(/C=C/C2=[O+][B-](F)(F)OC(/C=C/c3ccc(OC)cc3)=C2c2ccccc2)cc1
absorption maximum (in CC#N): 500 nm
absorption maximum (in CC(C)=O): 500 nm
absorption maximum (in CCOC(C)=O): 496 nm
absorption maximum (in CCOCC): 491 nm
absorption maximum (in ClC(Cl)(Cl)Cl): 493 nm
absorption maximum (in ClCCl): 505 nm

SMILES: CNc1cccc2c1C(=O)c1ccccc1C2=O
absorption maximum (in C1CCC2CCCCC2C1): 488 nm
absorption maximum (in C1CCCCC1): 488 nm
absorption maximum (in CC1CCCCC1): 489 nm
absorption maximum (in CC#N): 501 nm
absorption maximum (in CCC(C)CC): 487 nm
absorption maximum (in CCCCCC): 487 nm
absorption maximum (in CCOC(C)=O): 497.5 nm

SMILES: Cc1ccc(-c2c3nc(c(-c4ccc(C)cc4)c4ccc([nH]4)c(-c4ccc(OC(=O)C(C)c5ccc(CC(C)C)cc5)cc4)c4nc(c(-c5ccc(C)cc5)c5ccc2[nH]5)C=C4)C=C3)cc1 (centres undefined)
absorption maximum (in ClCCl): 649 nm

SMILES: CCCCOC(=O)c1cc(Cl)c2c3c(Cl)cc4c5c(cc(Cl)c(c6c(Oc7ccc(OC)cc7)cc(C(=O)OCCCC)c1c26)c53)C(=O)N(c1c(C(C)C)cccc1C(C)C)C4=O
absorption maximum (in Cc1ccccc1): 519 nm

SMILES: CCCCCCCCOc1ccc(-c2c3c4n(c(-c5ccc(OCCCCCCCC)cc5)c3c3n2[B-](F)(F)[n+]2c(ccc5cc(C(C)(C)C)ccc52)C=3C#N)[B-](F)(F)[n+]2c(ccc3cc(C(C)(C)C)ccc32)C=4C#N)cc1
absorption maximum (in ClC(Cl)Cl): 754 nm

SMILES: CCC1=C(C)C2=C(C)c3c(I)c(I)c(I)n3[B-](F)(F)[N+]2=C1C
absorption maximum (in C1CCCCC1): 531.5 nm
absorption maximum (in CC(C)=O): 517.5 nm
absorption maximum (in CCO): 522 nm
absorption maximum (in CCOC(C)=O): 521 nm
absorption maximum (in CO): 519.5 nm
absorption maximum (in OCC(F)(F)F): 511.5 nm

SMILES: C(=C(c1ccccc1)c1ccccc1)c1ccc(-c2cc(-c3ccc(C=C(c4ccccc4)c4ccccc4)cc3)c(-c3ccc(C=C(c4ccccc4)c4ccccc4)cc3)cc2-c2ccc(C=C(c3ccccc3)c3ccccc3)cc2)cc1
absorption maximum (in C1CCOC1): 330 nm

SMILES: CCOC(=O)COc1ccc(/C=C/c2c(CC)c(C)c3n2[B-](F)(F)[N+]2=C(c4[nH]c(C)c(CC)c4C)c4ccccc4C2=C3C)cc1
absorption maximum (in C1CCOC1): 675 nm
absorption maximum (in CC#N): 664 nm
absorption maximum (in CCCCCC): 677 nm
absorption maximum (in CO): 666 nm
absorption maximum (in Cc1ccccc1): 682 nm
absorption maximum (in ClCCl): 675 nm

SMILES: Cc1ccc2c(c1)C1(c3ccccc3-c3ccccc31)c1cc(C)ccc1N2c1ccc2c(c1)Sc1ccccc1P2(=S)c1ccccc1 (centres undefined)
absorption maximum (in Cc1ccccc1): 311.25 nm

SMILES: N#CC1=C(c2ccc(-c3cccs3)s2)CC1
absorption maximum (in C1CCOC1): 366 nm
absorption maximum (in CC#N): 364 nm
absorption maximum (in CCCCCC): 361 nm
absorption maximum (in CCO): 367 nm
absorption maximum (in OCCOCCO): 371 nm
absorption maximum (in c1ccncc1): 372 nm

SMILES: c1ccc(-c2cc(-c3ccc4ccc5cccc6ccc3c4c56)ccn2)nc1
absorption maximum (in C1CCOC1): 344 nm
absorption maximum (in CC#N): 342.99 nm
absorption maximum (in CCC#N): 342.99 nm
absorption maximum (in CCCC#N): 344 nm
absorption maximum (in CCCCCC): 342 nm
absorption maximum (in CCCO): 342.99 nm
absorption maximum (in CCO): 342.99 nm
absorption maximum (in CO): 342.99 nm
absorption maximum (in Cc1ccccc1): 342.99 nm

SMILES: O=C([O-])c1cc(N2C(=O)C=CC2=O)ccc1-c1c2cc(F)c(=O)cc-2oc2cc([O-])c(F)cc12
absorption maximum (in O): 493 nm

SMILES: N#Cc1nc2c3ccc(-c4ccc(-n5c6ccccc6c6ccccc65)cc4)cc3c3cc(-c4ccc(-n5c6ccccc6c6ccccc65)cc4)ccc3c2nc1C#N
absorption maximum (in Cc1ccccc1): 418 nm

SMILES: Cn1c(/C=C/c2ccc(/C=C/c3nc4ccccc4[nH]3)cc2)[n+](C)c2ccccc21
absorption maximum (in C1CCOC1): 363 nm
absorption maximum (in CC#N): 377 nm
absorption maximum (in CC(C)=O): 386 nm
absorption maximum (in CN(C)C=O): 389 nm
absorption maximum (in CO): 391 nm
absorption maximum (in CS(C)=O): 392 nm
absorption maximum (in O): 376 nm

SMILES: CCCCCCc1ccc2c3c(ccc2c1)O[B-](c1ccccc1)(c1ccccc1)[N+](c1ccc([N+]2=Cc4c(ccc5cc(CCCCCC)ccc45)O[B-]2(c2ccccc2)c2ccccc2)cc1)=C3
absorption maximum (in C1CCOC1): 455 nm
absorption maximum (in CC#N): 452 nm
absorption maximum (in Cc1ccccc1): 462 nm
absorption maximum (in ClCCl): 459 nm

SMILES: O=C(c1ccc(-n2c3ccc(-c4ccccc4)cc3c3cc(-c4ccccc4)ccc32)cc1)c1ccc(-n2c3ccc(-c4ccccc4)cc3c3cc(-c4ccccc4)ccc32)cc1
absorption maximum (in Cc1ccccc1): 370 nm

SMILES: CC1=CC(/C=C/c2ccc(N(C)C)cc2)=[N+]2C1=C(c1ccc(I)cc1)c1c(C)cc(/C=C/c3ccc(N(C)C)cc3)n1[B-]2(F)F
absorption maximum (in CC#N): 701 nm

SMILES: F[B-]1(F)n2c(Cl)c(Cl)c(Br)c2C(Cl)=C2C(Br)=C(Cl)C(Cl)=[N+]21
absorption maximum (in ClCCl): 546 nm

SMILES: CS(=O)(=O)c1ccc(-c2cc3ccc(N)cc3c(=O)o2)cc1
absorption maximum (in CC(C)=O): 358 nm
absorption maximum (in CCCCCCCCO): 366 nm
absorption maximum (in CCCCO): 366 nm
absorption maximum (in CCCO): 366 nm
absorption maximum (in CCOC(C)=O): 356 nm
absorption maximum (in CN(C)C=O): 367 nm
absorption maximum (in CO): 358 nm
absorption maximum (in ClC(Cl)Cl): 351 nm

SMILES: CCC(C)(C)c1ccc(-c2ccc3c(c2)C(CCOC)(CCOC)c2cc(C(C)(C)CC)ccc2-3)cc1
absorption maximum (in C1CCCCC1): 318 nm
